Tested on: cells
Assay: Cell adhesion on peptide-functionalized hydrogel
Assay type: cell-based
Conditions: peptide at 1% of the total cysteine groups used for hydrogel formation
Excerpt: The methods of macromonomer and hydrogel formation described herein provide biocompatible macromonomers and hydrogels which are easily modified with bioactive materials to improve functions of encapsulated cells such as supporting cell growth, and the development and secretion of cellular products upon biological stimulus. By “bioactive” we mean a substance that has or cause an effect on in biological samples. In this work, the macromonomers and hydrogels were further functionalized with peptides, although other bioactive materials may be used, such as proteins, growth factors, DNA, RNA. Peptides were functionalized through the Michael addition reaction between 4A-PEG-Cys and maleimide-terminated peptides prior to the cross-linking between 4A-PEG-Cys and 4A-PEG-CThE. This reaction is quantitative and fast, providing a good control over the density of peptides attached to the resulted hydrogel. Such strategy works well, when the physiological effects of peptides on cells can be achieved at low immobilization density.

## GRGDSPG (maleimide-GRGDSPG-NH2; also: conjugated to 4A-PEG-Cys) [cell adhesion peptide, maleimide-terminated, attached to 4A-PEG-Cys by Michael addition]
  cell adhesion: sufficient to support cell adhesion
